Test results as given in publication PMC12491383, “Organ and tumour dosimetry of ^177Lu-rhPSMA-10.1, a novel PSMA-targeted therapy: results from a Phase I trial” (European Journal of Nuclear Medicine and Molecular Imaging, 2025).

Assay: SPECT/CT image-based normal organ dosimetry (MIRD S-value methodology), Phase I BET-PSMA-121
Type: in vivo, human
Settings: for Cumulative Absorbed Dose, Bone Marrow, % of dose limit / Cumulative Absorbed Dose, Kidney, % of dose limit / Cumulative Absorbed Dose, Salivary Glands, % of dose limit / Cumulative Absorbed Dose, Bone Marrow / Cumulative Absorbed Dose, Kidney / Cumulative Absorbed Dose, Salivary Glands: Cohort B; for Cumulative Absorbed Dose, Bone Marrow, % of dose limit: limit 2 Gy; for Cumulative Absorbed Dose, Salivary Glands, % of dose limit: limit 24 Gy
Excerpt: Figure 1 provides a schematic representation of the study. Enrolled patients were sequentially entered into one of the two cohorts. Cohort A received 5.55 GBq (150 mCi) of ^177Lu-rhPSMA-10.1 and Cohort B received 7.40 GBq (200 mCi) of ^177Lu-rhPSMA-10.1. Subsequent doses were delivered at 6-week intervals subject to individual tolerability and safety assessments. Each patient received between one and three cycles, with a maximum of three cycles of treatment being permitted in this initial part of the study. All administrations of ^177Lu-rhPSMA-10.1 were performed using intravenous injection under the supervision of the treating physician.
Multi-bed single-photon emission computed tomography (SPECT)/CT was conducted at 3-, 24-, 48- and 168-hours post-^177Lu-rhPSMA-10.1 administration in each treatment cycle for the estimation of organ and tumour absorbed doses in each patient. Prior to commencement of the study, each investigating site was required to complete a calibration of their dose calibrator and SPECT/CT system to ensure harmonised quantification of the imaging data. Quantitative reconstructions and all dosimetry analyses were carried out centrally by an independent dosimetry vendor (Radiopharmaceutical Imaging and Dosimetry LLC, Baltimore, MD).
The specific absorbed doses (Gy/GBq) in normal organs and tumours were determined using the Medical Internal Radiation Dose (MIRD) Committee S-value methodology. Individual patient organ masses, determined via CT delineation, were scaled to reflect deviations from reference phantom geometry. Cumulative organ absorbed doses (Gy) were calculated across all treatment cycles. Further details on dosimetry methodology are provided in the supplemental materials and have been reported in accordance with EANM guidance.
All patients underwent multi-bed single-photon emission computed tomography (SPECT)/CT at 3-, 24-, 48- and 168-hours post-^177Lu-rhPSMA-10.1 administration during each treatment cycle. The acquisition parameters are shown in Supplemental Table S1. All images were centrally reconstructed in 3D-RD-S using the iterative Ordered Subsets Expectation-Maximization (OSEM) algorithm with 40 iterations and 5 subsets. Attenuation, scatter, and the Collimator-Detector Response Function (CDRF) were modelled during the iterative process using a rotation-based projector. CT-based attenuation compensation was performed using the attenuation map generated from the CT image. Scatter was modelled using the Effective Source Scatter Estimation (ESSE) method.
Reconstructed images were converted to activity concentration units (Becquerel (Bq)/millilitre (mL)) using the calibration factor generated for each individual imaging system. Organ masses were individually determined using CT-based delineations and longitudinal SPECT activity statistics were based on these same delineations.
Time integrated activity coefficients (TIACs) were calculated for each target tissue. This was done by fitting each time–activity curve with an exponential function (mono, bi, or exponential uptake and washout) and integrating from time 0 to infinity. The simpler function was preferred provided the fit was adequate ([…]).
The TIAC in the bone marrow was derived from contours drawn around the marrow inside lumbar vertebrae L3–L5. Where lesions were present in the lumbar area, contours were drawn around either the femur heads, scapula or sternum depending on the anatomical coverage. The TIAC was then divided by the marrow mass in this region to give the TIAC concentration. The total bone marrow TIAC was be obtained as the product of this concentration and the standard International Commission on Radiological Protection (ICRP) bone marrow mass.
The S-value methodology was used to estimate the target tissue dose. […]

[1] = Patient 4, 3 cycles, 22.94 GBq cumulative
[2] = Patient 5, 3 cycles, 22.29 GBq cumulative
[3] = Patient 6, 3 cycles, 22.59 GBq cumulative
[4] = Patient 7, 3 cycles, 22.29 GBq cumulative
[5] = Patient 8, 3 cycles, 22.86 GBq cumulative
[6] = Patient 9, 3 cycles, 22.10 GBq cumulative
[7] = Patient 10, 3 cycles, 23.30 GBq cumulative
[8] = Patient 11, 1 cycle, 7.80 GBq cumulative
[9] = Patient 12, 1 cycle, 7.46 GBq cumulative
[10] = Patient 13, 3 cycles, 22.23 GBq cumulative

In the case of `CC(C)(C)[Si](F)(c1ccc(C(=O)NC[C@@H](NC(=O)CN2CCN(CC(=O)[O-])CCN(CC(=O)[O-])CCN(CC(=O)[O-])CC2)C(=O)N[C@H](CCCCNC(=O)CCC(=O)NCCC[C@@H](NC(=O)CC[C@H](NC(=O)N[C@@H](CCC(=O)O)C(=O)O)C(=O)O)C(=O)O)C(=O)O)cc1)C(C)(C)C.[177Lu+3]` [^177Lu-rhPSMA-10.1], the “Cumulative Absorbed Dose, Bone Marrow, % of dose limit” value [1] is reported as 6.5%, the “Cumulative Absorbed Dose, Kidney, % of dose limit” value (Patient 4, 3 cycles, 22.94 GBq cumulative, limit 23 Gy) is reported as 36% and the “Cumulative Absorbed Dose, Salivary Glands, % of dose limit” value [1] is reported as 12%. The “Cumulative Absorbed Dose, Bone Marrow” value [2] was 0.07 Gy, the “Cumulative Absorbed Dose, Kidney” value [2] was 6.25 Gy and the “Cumulative Absorbed Dose, Salivary Glands” value [2] was 2.85 Gy. The “Cumulative Absorbed Dose, Bone Marrow, % of dose limit” value [2] was 3.5%, the “Cumulative Absorbed Dose, Kidney, % of dose limit” value (Patient 5, 3 cycles, 22.29 GBq cumulative, limit 23 Gy) was 27% and the “Cumulative Absorbed Dose, Salivary Glands, % of dose limit” value [2] was 12%. For the same compound, the “Cumulative Absorbed Dose, Bone Marrow” value [3] was 0.42 Gy, the “Cumulative Absorbed Dose, Kidney” value [3] was 7.31 Gy and the “Cumulative Absorbed Dose, Salivary Glands” value [3] was 2.87 Gy. For the same compound, the “Cumulative Absorbed Dose, Bone Marrow, % of dose limit” value [3] was 21%, the “Cumulative Absorbed Dose, Kidney, % of dose limit” value (Patient 6, 3 cycles, 22.59 GBq cumulative, limit 23 Gy) was 32% and the “Cumulative Absorbed Dose, Salivary Glands, % of dose limit” value [3] was 12%. For the same compound, the “Cumulative Absorbed Dose, Bone Marrow” value [4] was 0.05 Gy, the “Cumulative Absorbed Dose, Kidney” value [4] was 4.02 Gy and the “Cumulative Absorbed Dose, Salivary Glands” value [4] was 2.88 Gy. The “Cumulative Absorbed Dose, Bone Marrow, % of dose limit” value [4] was 2.5%, the “Cumulative Absorbed Dose, Kidney, % of dose limit” value (Patient 7, 3 cycles, 22.29 GBq cumulative, limit 23 Gy) was 17% and the “Cumulative Absorbed Dose, Salivary Glands, % of dose limit” value [4] was 12%. The “Cumulative Absorbed Dose, Bone Marrow” value [5] was 0.24 Gy, the “Cumulative Absorbed Dose, Kidney” value [5] was 5.18 Gy and the “Cumulative Absorbed Dose, Salivary Glands” value [5] was 1.17 Gy. The “Cumulative Absorbed Dose, Bone Marrow, % of dose limit” value [5] was 12%, the “Cumulative Absorbed Dose, Kidney, % of dose limit” value (Patient 8, 3 cycles, 22.86 GBq cumulative, limit 23 Gy) was 23% and the “Cumulative Absorbed Dose, Salivary Glands, % of dose limit” value [5] was 4.9%. The “Cumulative Absorbed Dose, Bone Marrow” value [6] was 0.05 Gy, the “Cumulative Absorbed Dose, Kidney” value [6] was 5.18 Gy and the “Cumulative Absorbed Dose, Salivary Glands” value [6] was 2.00 Gy. For the same compound, the “Cumulative Absorbed Dose, Bone Marrow, % of dose limit” value [6] was 2.5%, the “Cumulative Absorbed Dose, Kidney, % of dose limit” value (Patient 9, 3 cycles, 22.10 GBq cumulative, limit 23 Gy) was 23% and the “Cumulative Absorbed Dose, Salivary Glands, % of dose limit” value [6] was 8.3%. The “Cumulative Absorbed Dose, Bone Marrow” value [7] was 0.03 Gy, the “Cumulative Absorbed Dose, Kidney” value [7] was 4.29 Gy and the “Cumulative Absorbed Dose, Salivary Glands” value [7] was 0.82 Gy. The “Cumulative Absorbed Dose, Bone Marrow, % of dose limit” value [7] was 1.5%, the “Cumulative Absorbed Dose, Kidney, % of dose limit” value (Patient 10, 3 cycles, 23.30 GBq cumulative, limit 23 Gy) was 19% and the “Cumulative Absorbed Dose, Salivary Glands, % of dose limit” value [7] was 3.4%. The “Cumulative Absorbed Dose, Bone Marrow” value [8] was 0.23 Gy, the “Cumulative Absorbed Dose, Kidney” value [8] was 1.52 Gy and the “Cumulative Absorbed Dose, Salivary Glands” value [8] was 0.88 Gy. The “Cumulative Absorbed Dose, Bone Marrow, % of dose limit” value [8] was 11%, the “Cumulative Absorbed Dose, Kidney, % of dose limit” value (Patient 11, 1 cycle, 7.80 GBq cumulative, limit 23 Gy) was 6.6% and the “Cumulative Absorbed Dose, Salivary Glands, % of dose limit” value [8] was 3.7%. For the same compound, the “Cumulative Absorbed Dose, Bone Marrow” value [9] was 0.04 Gy, the “Cumulative Absorbed Dose, Kidney” value [9] was 1.71 Gy and the “Cumulative Absorbed Dose, Salivary Glands” value [9] was 0.79 Gy. The “Cumulative Absorbed Dose, Bone Marrow, % of dose limit” value [9] was 2.0%, the “Cumulative Absorbed Dose, Kidney, % of dose limit” value (Patient 12, 1 cycle, 7.46 GBq cumulative, limit 23 Gy) was 7.4% and the “Cumulative Absorbed Dose, Salivary Glands, % of dose limit” value [9] was 3.3%. The “Cumulative Absorbed Dose, Bone Marrow” value [10] was 0.05 Gy, the “Cumulative Absorbed Dose, Kidney” value [10] was 4.63 Gy and the “Cumulative Absorbed Dose, Salivary Glands” value [10] was 3.40 Gy. For the same compound, the “Cumulative Absorbed Dose, Bone Marrow, % of dose limit” value [10] was 2.5%, the “Cumulative Absorbed Dose, Kidney, % of dose limit” value (Patient 13, 3 cycles, 22.23 GBq cumulative, limit 23 Gy) was 20% and the “Cumulative Absorbed Dose, Salivary Glands, % of dose limit” value [10] was 14%. The “Cumulative absorbed doses versus historical EBRT organ dose limits” value (all patients, both dosing cohorts) was “below the historical external beam radiation therapy (EBRT) organ dose limits”, the “Equivalent number of treatment cycles to reach the EBRT kidney dose limit of 23 Gy” value (at 7.4 GBq per cycle, range across the 13 patients) was 6–17 cycles and the “Cumulative absorbed dose to the kidney as % of the EBRT dose limit, highest reached” value (limit 23 Gy, maximum of three cycles) was at most 36%.
